Laboratory results taken from patent publication EP0345906B1, “Unique elastase induced fibrinogen cleavage site antigens” (MERCK & CO. INC., priority 1988, dated 1989).

Legend:
whole human blood = experiment: In vitro production of Aα 17-21 epitope containing peptide in human blood, other membrane perturbators with cytochalasin B; format: cell-based; details: 5 mg/ml cytochalasin B
Method: Other known membrane perturbators have been used to evaluate the in vitro production of the epitope containing cleavage peptide Aα 17-21 in human blood. Aliquots of freshly-drawn heparinized whole blood were incubated for 25 minutes at 37°C in the presence of either 5 mg/ml cytochalasin B and concentrations of phorbol-12-myristate-13-acetate (PMA) ranging up to 20 mM or in the presence of the combination of 5 mg/ml cytochalasin B and concentrations of n-formyl-L-norleucyl-L-leucyl-L-phenylalanine (FNLP) ranging up to 20 mM. Plasma was collected, prepared and assayed as described above.

human leukocyte elastase = target: T1, human leukocyte elastase (Homo sapiens, UniProt P08246); experiment: Elastase inhibitor activity assay: A23187-stimulated fibrinogen cleavage peptide production in whole human blood; format: cell-based; details: A23187 150 mM
T1 construct: exposure of whole human blood to calcium ionophore A23187 results in elastase cleavage product by allowing the release of neutrophil elastase; endogenous in cells; host or cells: leukocytes (neutrophils) in freshly drawn heparinized whole human blood, stimulated with A23187
T1 sequence (P08246 30-267): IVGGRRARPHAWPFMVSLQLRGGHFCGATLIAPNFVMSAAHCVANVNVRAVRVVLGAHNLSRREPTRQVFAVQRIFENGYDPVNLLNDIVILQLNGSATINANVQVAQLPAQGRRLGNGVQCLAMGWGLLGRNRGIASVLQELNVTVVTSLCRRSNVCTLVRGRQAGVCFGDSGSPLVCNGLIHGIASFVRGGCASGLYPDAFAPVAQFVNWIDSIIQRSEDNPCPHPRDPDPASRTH
Method: The above defined assay technology is used to monitor the activity of human elastase inhibitors on human leukocyte elastase activity in human and primate blood. […] Replicate aliquots of freshly-drawn heparinized whole human blood are prepared with concentrations of elastase inhibitor ranging up to about 300 mg/ml. Following a brief pre-incubation with the inhibitor, a membrane perturbator, such as calcium ionophore A23187, is added at a concentration of between about 75 mM and about 300 mM. Non-membrane perturbator controls containing blood and perturbator-only controls are included to measure the extent of uninhibited peptide generation. All assay samples are incubated at about 37°C for about 25 minutes. The plasma is then prepared and assayed for fibrinogen cleavage products as described above.
The effect of the elastase inhibitor 3-Acetoxymethyl-1a-methoxy-6-oxo-5-thia-1-azabicyclo[4.2.0]oct-2-ene-2-(2-(S)-carboxypyrrolidinecarboxamide)5,5-dioxide (compound 1) on the calcium ionophore A23187-induced fibrinogen cleavage peptide production was evaluated. Replicate 2 ml aliquots of freshly-drawn heparinized whole human blood were prepared with concentrations of compound 1 ranging up to […]. Following a brief pre-incubation of 5 minutes at 37°C, calcium ionophore A23187 was added to a final concentration of 150 mM. Non-ionophore containing blood and ionophore-only (no inhibitor) controls were included to measure the extent of uninhibited peptide generation. All aliquots were incubated at 37°C for 25 minutes, the plasma collected, processed and assayed for fibrinogen cleavage peptide as described above.

leukocyte elastase = experiment: Ionophore-induced peptide production in blood drawn from an elastase inhibitor-treated chimpanzee; format: in vivo
Method: In vivo inhibition of fibrinogen cleavage products following treatment of primates with an elastase inhibitor is evaluated. Blood or fluid samples are collected both before and after treatment with either an elastase inhibitor or saline. Each heparinized blood sample is divided into about 4 aliquots (about 1 ml) and processed as described above. Treatment of an animal with an elastase inhibitor causes a marked reduction in the amount of elastase cleavage product produced.
Two chimpanzees were anesthetized and fitted with venous catheters for the collection of blood. Blood was collected from each animal at intervals over a 60 minute period prior to the administration of the elastase inhibitor. All blood samples were collected in heparin. After the initial 60 minute period one animal was given an intravenous injection of 10 mg/kg of the elastase inhibitor compound 1 while the other animal received an equivalent volume of normal saline. Additional heparinized blood samples were taken from both animals at regular intervals over the next 60 minutes. Each freshly-drawn sample of whole heparinized chimpanzee blood was divided into 4 aliquots. Calcium ionophore A23187 was added at a final concentration of 150 mM to two of the aliquots and an equivalent volume of the DMSO vehicle was added to the other two. All blood samples were incubated at 37° for 25 minutes, plasma collected and assayed as described above.
Elastase inhibitor was infused into the treated animal at time 0.

CCCCCCCCCCCCCC(=O)O[C@@H]1[C@@H](C)[C@@]2(O)[C@@H](C=C(CO)C[C@]3(O)C(=O)C(C)=C[C@@H]23)[C@@H]2C(C)(C)[C@]12OC(C)=O [PMA, phorbol-12-myristate-13-acetate]
Aα 17-21 Epitope Containing Peptide Produced (picomoles/ml plasma) (whole human blood; PMA 0.003 mMolar, 25 minutes at 37°C): 0.0 picomoles/ml plasma
Aα 17-21 Epitope Containing Peptide Produced (picomoles/ml plasma) (whole human blood; PMA 0.010 mMolar): 0.3 picomoles/ml plasma
Aα 17-21 Epitope Containing Peptide Produced (picomoles/ml plasma) (whole human blood; PMA 0.03 mMolar): 0.3 picomoles/ml plasma
Aα 17-21 Epitope Containing Peptide Produced (picomoles/ml plasma) (whole human blood; PMA 0.10 mMolar): 0.4 picomoles/ml plasma
Aα 17-21 Epitope Containing Peptide Produced (picomoles/ml plasma) (whole human blood; PMA 0.30 mMolar): 0.9 picomoles/ml plasma
Aα 17-21 Epitope Containing Peptide Produced (picomoles/ml plasma) (whole human blood; PMA 1.0 mMolar): 1.5 picomoles/ml plasma
Aα 17-21 Epitope Containing Peptide Produced (picomoles/ml plasma) (whole human blood; PMA 3.0 mMolar): 2.6 picomoles/ml plasma
Aα 17-21 Epitope Containing Peptide Produced (picomoles/ml plasma) (whole human blood; PMA 10.0 mMolar): 3.0 picomoles/ml plasma
Aα 17-21 Epitope Containing Peptide Produced (picomoles/ml plasma) (whole human blood; PMA 20.0 mMolar): 3.7 picomoles/ml plasma

n-formyl-L-norleucyl-L-leucyl-L-phenylalanine [FNLP]
Aα 17-21 Epitope Containing Peptide Produced (picomoles/ml plasma) (whole human blood; FNLP 0.001 mMolar, 25 minutes at 37°C): 0.0 picomoles/ml plasma
Aα 17-21 Epitope Containing Peptide Produced (picomoles/ml plasma) (whole human blood; FNLP 0.003 mMolar): 0.0 picomoles/ml plasma
Aα 17-21 Epitope Containing Peptide Produced (picomoles/ml plasma) (whole human blood; FNLP 0.010 mMolar): 0.0 picomoles/ml plasma
Aα 17-21 Epitope Containing Peptide Produced (picomoles/ml plasma) (whole human blood; FNLP 0.03 mMolar): 0.4 picomoles/ml plasma
Aα 17-21 Epitope Containing Peptide Produced (picomoles/ml plasma) (whole human blood; FNLP 0.1 mMolar): 0.9 picomoles/ml plasma
Aα 17-21 Epitope Containing Peptide Produced (picomoles/ml plasma) (whole human blood; FNLP 0.3 mMolar): 1.1 picomoles/ml plasma
Aα 17-21 Epitope Containing Peptide Produced (picomoles/ml plasma) (whole human blood; FNLP 1.0 mMolar): 1.1 picomoles/ml plasma
Aα 17-21 Epitope Containing Peptide Produced (picomoles/ml plasma) (whole human blood; FNLP 3.0 mMolar): 1.3 picomoles/ml plasma
Aα 17-21 Epitope Containing Peptide Produced (picomoles/ml plasma) (whole human blood; FNLP 10.0 mMolar): 1.2 picomoles/ml plasma
Aα 17-21 Epitope Containing Peptide Produced (picomoles/ml plasma) (whole human blood; FNLP 20.0 mMolar): 1.3 picomoles/ml plasma

COC1C(=O)N2C(C(=O)N3CCCC3C(=O)O)=C(COC(C)=O)CS(=O)(=O)C12 [compound 1, 3-Acetoxymethyl-1a-methoxy-6-oxo-5-thia-1-azabicyclo[4.2.0]oct-2-ene-2-(2-(S)-carboxypyrrolidinecarboxamide)5,5-dioxide]
Cleavage Product Produced picomoles/ml (human leukocyte elastase; Elastase Inhibitor 1 mg/ml): 2.3 picomoles/ml
inhibition at 1000 µg/mL (human leukocyte elastase; Elastase Inhibitor 1 mg/ml, read-out: Percent Inhibition): 4%
Cleavage Product Produced picomoles/ml (human leukocyte elastase; Elastase Inhibitor 5 mg/ml): 1.6 picomoles/ml
Cleavage Product Produced picomoles/ml (human leukocyte elastase; Elastase Inhibitor 10 mg/ml): 1.6 picomoles/ml
Cleavage Product Produced picomoles/ml (human leukocyte elastase; Elastase Inhibitor 20 mg/ml): 1.5 picomoles/ml
Cleavage Product Produced picomoles/ml (human leukocyte elastase; Elastase Inhibitor 30 mg/ml): 1.2 picomoles/ml
Cleavage Product Produced picomoles/ml (human leukocyte elastase; Elastase Inhibitor 40 mg/ml): 0.8 picomoles/ml
Cleavage Product Produced picomoles/ml (human leukocyte elastase; Elastase Inhibitor 80 mg/ml): 0.4 picomoles/ml
A 1-21 Peptide Produced (picomoles/ml plasma) Treated (leukocyte elastase; Time 1.0 min after intravenous injection of 10 mg/kg, blood stimulated with A23187 150 mM): 1.10 picomoles/ml plasma
A 1-21 Peptide Produced (picomoles/ml plasma) Treated (leukocyte elastase; Time 2.5 min after intravenous 10 mg/kg): 1.30 picomoles/ml plasma
A 1-21 Peptide Produced (picomoles/ml plasma) Treated (leukocyte elastase; Time 5.0 min after intravenous 10 mg/kg): 1.60 picomoles/ml plasma
A 1-21 Peptide Produced (picomoles/ml plasma) Treated (leukocyte elastase; Time 7.5 min after intravenous 10 mg/kg): 2.00 picomoles/ml plasma
A 1-21 Peptide Produced (picomoles/ml plasma) Treated (leukocyte elastase; Time 10.0 min after intravenous 10 mg/kg): 1.80 picomoles/ml plasma
A 1-21 Peptide Produced (picomoles/ml plasma) Treated (leukocyte elastase; Time 12.5 min after intravenous 10 mg/kg): 1.70 picomoles/ml plasma
A 1-21 Peptide Produced (picomoles/ml plasma) Treated (leukocyte elastase; Time 15.0 min after intravenous 10 mg/kg): 0.98 picomoles/ml plasma
A 1-21 Peptide Produced (picomoles/ml plasma) Treated (leukocyte elastase; Time 20.0 min after intravenous 10 mg/kg): 1.90 picomoles/ml plasma
A 1-21 Peptide Produced (picomoles/ml plasma) Treated (leukocyte elastase; Time 30.0 min after intravenous 10 mg/kg): 2.20 picomoles/ml plasma
A 1-21 Peptide Produced (picomoles/ml plasma) Treated (leukocyte elastase; Time 40.0 min after intravenous 10 mg/kg): 3.10 picomoles/ml plasma
A 1-21 Peptide Produced (picomoles/ml plasma) Treated (leukocyte elastase; Time 50.0 min after intravenous 10 mg/kg): 2.60 picomoles/ml plasma
A 1-21 Peptide Produced (picomoles/ml plasma) Treated (leukocyte elastase; Time 60.0 min after intravenous 10 mg/kg): 2.50 picomoles/ml plasma
levels of the fibrinogen peptide produced in response to calcium ionophore A23187 after infusion (leukocyte elastase; treated chimpanzee, 10 mg/kg intravenous, in words): markedly lower levels
